Assay results: article PMC11969438 (Inorganic Chemistry Frontiers, 2025)

Experiments:
[1] = Hydrolytic stability in phosphate buffer, UHPLC; format: physicochemical; conditions: 1 mM, 150 mM PB pH 7.4, 20 °C, over 24 h
Procedure: PB (150 mM, pH 7.4) containing 1 mM platinum compound was incubated at 20 °C, with and without the addition of 10 eq. of AA. The reaction was monitored using a Thermo Scientific Dionex UltiMate 3000 UHPLC system with a Waters Acquity UPLC BEH C18 1.7 μm 3.0 × 50 mm column. Milli-Q water containing 0.1% formic acid and acetonitrile containing 0.1% formic acid were used as eluents. A gradient of 5–95% over 5 min was used with a flow of 0.6 mL min^−1. To evaluate the current state of the reaction, the peak area of the parental complex was used.

[2] = tested on: immune cell populations in tumor and spleen; assay: Immune activation and infiltration by flow cytometry; format: in vivo, CT-26-bearing BALB/c mice; conditions: 24 h after second dose
Procedure: Tumor size was determined daily via manual caliper measurement. […] Animals were euthanized via cervical dislocation.
The generation and treatment of tumor-bearing mice are outlined in the section “In vivo syngraft experiments” above. Samples were kept on ice during the whole procedure. Tissues were prepared as described previously.[55] In brief, tumor and spleen tissues were collected and mechanically dissociated in DPBS buffer containing Ca^2+/Mg^2+ and FCS (5%). Tumor samples were digested using collagenase VIII (1 mg mL^−1) in a DPBS buffer (without Ca^2+/Mg^2+) supplemented with DNAse I (1 mg mL^−1) for 15 min at 37 °C under constant shaking. Samples were filtered using 70 μm cell strainers in a DPBS buffer (without Ca^2+/Mg^2+) containing FCS (5%), EDTA (5 mM) and DNase I (20 μg mL^−1). Subsequent washing steps were performed in DPBS buffer (without Ca^2+/Mg^2+) containing FCS (5%), EDTA (5 mM) and DNase I (20 μg mL^−1), unless indicated otherwise. Red blood cells were removed by short incubation with ACK buffer. For blocking, samples were incubated with the Ultra-LEAF purified anti-mouse CD16/CD32 antibody (clone: 93; #101330; RRID:AB_2783037; dilution: 1 : 1000) (Biolegend, San Diego, CA, USA) in the BD Horizon Brilliant Stain Buffer (#563794; BD Biosciences) for 10 min. Next, the samples were incubated with an antibody mixture in the BD Horizon Brilliant Stain Buffer for 30 min. Fluorescent dye-labeled antibodies targeting murine CD3 (17A2; #100203; RRID:AB_312661; 1 : 50), CD8a (53-6.7; #100738; RRID:AB_11204079; 1 : 160), CD19 (6D5; #115528; RRID:AB_493735; 1 : 400), CD49b (DX5; #108924; RRID:AB_2565271; 1 : 229), CD11b (M1/70; #101228; RRID:AB_893232; 1 : 80), and CD69 (H1.2F3; # 104512; RRID:AB_493564; 1 : 40) were purchased from BioLegend. The antibody targeting murine CD4 (RM4-5; # 85-0042-U100; 1 : 80) and the viability dye Ghost Dye Red 780 (#13-0865-T100; 1 : 1000) were purchased from Tonbobio (San Diego, CA, USA). The antibody targeting CD45 (30-F11; #363-0451-82; RRID:AB_2925264; 1 : 80) was purchased from Life Tech (Invitrogen). For intracellular staining of granzyme B (GzmB) (QA16A02; #372208; RRID:AB_2687032; 1 : 20) and FoxP3 (MF-14; #320014; RRID:AB_439750; 1 : 100) the True-Nuclear Transcription Factor Buffer Set (Biolegend; #424401) was used according to the manufacturer's recommendations. In brief, samples were incubated with Perm Fix Solution for 60 min at RT. Next, the samples were stained with antibodies targeting GzmB and FoxP3 (diluted in Perm buffer) for 30 min at RT. […] Next day, the samples were analyzed using a Cytek Aurora 5L (Cytek Biosciences, CA, USA) spectral flow cytometer. Data were analyzed using SpectroFlo (v3.2.1) (Cytek Biosciences) and FlowJo (v10.8.1) (FlowJo LLC, Ashland, OR, USA) software.

[3] = Hematological analysis 24 h after the second dose; conditions: 24 h after second dose; for anemia: two i.v. doses equimolar to 9 mg kg^−1 oxaliplatin
Procedure: (§1) Mice were kept in groups of four per cage with sterilized paper-based environmental enrichment and food and water ad libitum, under pathogen-free conditions and a controlled environment with a 12 h light–dark cycle. Syngeneic models of colorectal carcinoma were generated via subcutaneous injection of CT-26 cells (0.5 × 10^6 cells in 50 μL of serum-free RPMI-1640 medium) into the right flank of 8–12 weeks old BALB/c mice. […] All animals were euthanized 24 h after the second dose. […] To determine the anticancer efficacy of the investigated compounds, treatment started 4 d after tumor implantation, when all tumors were measurable (>25 mm^3) using a twice-weekly treatment scheme for two weeks. Tumor size was determined daily via manual caliper measurement. The tumor volume was calculated as tumor volume = (length × diameter × diameter)/2. The overall condition, shape, and activity of the animals were assessed daily. Peripheral blood was collected from the submandibular vein in K3E K3EDTA tubes (Greiner Bio-One; Kremsmünster, AUT) on ice and was analyzed for hematological parameters (red blood cells (RBCs), hemoglobin (HGB), hematocrit (HCT), red cell distribution width (RDW), mean corpuscular volume (MCV), white blood cells (WBCs), lymphocytes (LYM), monocytes (MO), granulocytes (GRA), and platelets (PLT) using a Vet ABC hematology analyzer (scil Animal Care GmbH, Viernheim, Germany). EDTA-blood was centrifuged (900g, 10 min) twice and the supernatant (EDTA-plasma) was stored at −20 °C for subsequent cytokine/chemokine analysis using a Luminex detection platform. All animal experiments were performed with humane endpoints based on Federation of European Laboratory Animal Science Associations guidelines and according to the regulations of the Ethics Committee for the Care and Use of Laboratory Animals at the Medical University Vienna (proposal number BMBWF 2023–0.122.324). Animals were euthanized upon reaching a tumor volume of >1500 mm^3, a loss in body weight (>20%), tumor ulceration or other indications of deteriorated health. Animals were euthanized via cervical dislocation.

[4] = Hematological analysis after long-term treatment; conditions: 72 h after the fourth dose
Procedure: as §1

| SMILES | stability in PB [1] | FoxP3+ CD4+ T cell compartment in the spleen [2] | anemia [3] | CD45+ cells among viable splenic cells [2] | splenic CD8+ T cells in the CD45+ cell population [2] | red blood cell counts (RBCs), hematocrit (HCT), red cell distribution width (RDW) [3] | platelet counts (PLT) / thrombocytopenia [4] | absolute counts of white blood cells and subpopulations ([4]; i.v. twice a week for two weeks) |
| --- | --- | --- | --- | --- | --- | --- | --- | --- |
| COCCOCCOCCOCCNC(=O)[O][Pt-2]12([O]C(=O)CCC(=O)c3cc4cc(OC)c(OC)cc4s3)([NH2+][C@@H]3CCCC[C@H]3[NH2+]1)[O]C(=O)C(=O)[O]2 [Ox-MSA-PEG-Ca, (OC-6-34)-[(1R,2R)-1,2-cyclohexanediamino]-oxalato-[4-(5,6-dimethoxybenzo[b]thiophen-2-yl)-4-oxobutylcarboxylato]-[3,6,9,12-tetraoxatridecan-1-amino]platinum(IV)] | very well comparable to Ox-MSA-PEG-Es | selectively elevated | not | – | – | – | – | – |
| COCCOCCOCCOCCC(=O)[O][Pt-2]12([O]C(=O)CCC(=O)c3cc4cc(OC)c(OC)cc4s3)([NH2+][C@@H]3CCCC[C@H]3[NH2+]1)[O]C(=O)C(=O)[O]2 [Ox-MSA-PEG-Es, (OC-6-44)-[(1R,2R)-1,2-cyclohexanediamino]-oxalato-[4-(5,6-dimethoxybenzo[b]thiophen-2-yl)-4-oxobutylcarboxylato]-[2,5,8,11-tetraoxatetradecanoato]platinum(IV)] | stable | – | – | – | – | – | – | – |
| O=C1[O][Pt]2([NH][C@@H]3CCCC[C@H]3[NH]2)[O]C1=O [oxaliplatin, reference compound] | – | – | anemia | significantly upregulated | strongest effect | clearly lowered | distinctly reduced platelet counts | massively lowered |
